The source made the active and inactive calls.
How the values were obtained:
[1] = (§1) Counterscreen for antagonists of the orexin 1 receptor (OX1R; HCRTR1): Fluorescence-based cell-based high throughput dose response assay to identify antagonists of the parental CHO cell line. [Related pubchem assays (depositor defined):AID434989, AID435008, AID463079, AID485270, AID492963, AID492964, AID492965, AID493232, AID504699, AID504701]; type: functional
CHO-K1 = assay: as §1, with “Homogeneous time resolved fluorescence (HTRF)-based” for “Fluorescence-based”, “cell-based” for “cell-based high throughput”, “CHO-K1” for “CHO”; type: functional; conditions: Cricetulus griseus;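 further: potency for inhibition of ATP-stimulated IP1 production as antagonists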
[2] = biological target: T1, Orexin/Hypocretin receptor type 1 (Homo sapiens, UniProt O43613); assay: (§2) Fluorescence-based cell-based high throughput dose response assay for antagonists of the orexin 1 receptor (OX1R; HCRTR1). [Related pubchem assays (depositor defined):AID434989, AID435008, AID463079, AID485270, AID492963, AID492964, AID492965, AID493232, AID504717, AID504718]; type: functional
T1 sequence (O43613 whole entry): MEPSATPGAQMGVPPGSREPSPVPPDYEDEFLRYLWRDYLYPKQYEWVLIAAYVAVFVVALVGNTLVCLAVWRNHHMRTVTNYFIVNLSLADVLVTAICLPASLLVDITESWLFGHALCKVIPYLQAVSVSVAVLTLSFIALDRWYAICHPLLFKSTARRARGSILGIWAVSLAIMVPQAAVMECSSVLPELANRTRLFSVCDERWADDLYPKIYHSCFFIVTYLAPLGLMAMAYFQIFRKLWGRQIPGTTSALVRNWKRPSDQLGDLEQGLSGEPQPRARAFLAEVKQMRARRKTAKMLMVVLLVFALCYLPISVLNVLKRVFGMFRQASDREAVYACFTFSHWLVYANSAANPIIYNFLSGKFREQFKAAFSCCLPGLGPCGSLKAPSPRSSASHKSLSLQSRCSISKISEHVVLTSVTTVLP

[3] = biological target: T1, Orexin/Hypocretin receptor type 1; assay: as §2, with “Homogeneous Time Resolved Fluorescence (HTRF)-based” for “Fluorescence-based”; type: functional
Orexin receptor type 2 [4] = biological target: T2, Orexin receptor type 2 (Homo sapiens, UniProt O43614); assay: Counterscreen assay for antagonists of the orexin 1 receptor (OX1R; HCRTR1): Fluorescence-based cell-based dose response assay for antagonists of the orexin 2 receptor (OX2R; HCRTR2), run by assay provider.; type: functional
T2 sequence (O43614 whole entry): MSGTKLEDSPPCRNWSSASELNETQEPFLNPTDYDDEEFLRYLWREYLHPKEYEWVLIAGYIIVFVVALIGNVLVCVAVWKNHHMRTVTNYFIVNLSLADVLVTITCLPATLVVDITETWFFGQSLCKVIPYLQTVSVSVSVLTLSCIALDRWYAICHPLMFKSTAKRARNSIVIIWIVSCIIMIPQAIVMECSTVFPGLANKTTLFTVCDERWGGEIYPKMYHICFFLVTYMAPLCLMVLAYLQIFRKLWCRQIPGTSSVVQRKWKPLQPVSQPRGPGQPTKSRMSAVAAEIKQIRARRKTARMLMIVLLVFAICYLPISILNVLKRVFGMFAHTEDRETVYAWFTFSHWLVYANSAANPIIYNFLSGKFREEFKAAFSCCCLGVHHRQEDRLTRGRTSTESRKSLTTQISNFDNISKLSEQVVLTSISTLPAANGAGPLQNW

Orexin receptor type 2 [5] = biological target: T2, Orexin receptor type 2; assay: Counterscreen assay for antagonists of the orexin 1 receptor (OX1R; HCRTR1): Homogeneous Time Resolved Fluorescence (HTRF)-based cell-based dose response assay for antagonists of the orexin 2 receptor (OX2R; HCRTR2), run by assay provider.; type: functional
[6] = biological target: T3, Heat shock factor protein 1 (Mus musculus, UniProt P38532); assay: inhibition of MG132-induced HSE-luciferase signal, confirmation, cell-based, NIH3T3, luminescence, dose retest (AID 2382); type: functional;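 further: NIH3T3 fibroblasts with HSF1-driven luciferase reporter stressed by proteasome inhibitor MG132; luminescence from HSF1-driven luciferase expression after 8 hours of MG132 stress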
T3 sequence (P38532 whole entry): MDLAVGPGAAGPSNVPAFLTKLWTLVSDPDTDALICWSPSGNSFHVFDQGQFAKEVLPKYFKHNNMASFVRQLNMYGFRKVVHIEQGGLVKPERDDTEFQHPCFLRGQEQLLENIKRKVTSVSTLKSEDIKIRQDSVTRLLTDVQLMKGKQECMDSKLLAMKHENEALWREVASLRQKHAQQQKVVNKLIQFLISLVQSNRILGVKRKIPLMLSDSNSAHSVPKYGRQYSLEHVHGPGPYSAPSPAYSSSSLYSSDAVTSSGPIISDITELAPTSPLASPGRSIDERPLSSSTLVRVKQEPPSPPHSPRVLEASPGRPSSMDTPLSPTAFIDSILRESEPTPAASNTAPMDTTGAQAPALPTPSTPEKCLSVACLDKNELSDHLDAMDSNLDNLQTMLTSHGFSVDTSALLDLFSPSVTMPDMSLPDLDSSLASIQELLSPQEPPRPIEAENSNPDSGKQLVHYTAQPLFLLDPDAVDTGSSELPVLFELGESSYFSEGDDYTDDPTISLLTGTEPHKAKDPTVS

[7] = inhibitors of firefly luciferase expression or activity, dose response, H4 neuroglioma cells, luminescence (AID 1990); type: functional, cell-based
[8] = Luminescence Cell-Based Dose Response HTS to Identify Inhibitors of 5'UTR Stem-Loop Driven Prion Protein mRNA Translation in H4 Neuroglioblastoma Cells. [Related pubchem assays: 1827 (Project Summary), 1813 (Primary HTS)]; type: functional
[9] = HEp-2 cell cytotoxicity, dose response, cytotoxicity control for RSV inhibitor project, HTS (AID 2410); type: functional; conditions: human respiratory syncytial virus
[10] = inhibitors of SNCA 5'UTR-driven reporter translation, confirmation, H4 neuroglioma cells, luminescence (AID 1988); type: functional, cell-based
Protein Wnt-3a = Protein Wnt-3a (Mus musculus, UniProt P27467); assay: Wnt3a-driven reporter signaling inhibition, dose response, selectivity assay for Gli-SUFU antagonist project, Wnt-LIGHT cells, luminescence (AID 651570); type: functional; conditions: read-out: IC50_Mean;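 further: Wnt-LIGHT reporter cells stimulated with conditioned medium from Wnt3a-producing cells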
Protein Wnt-3a, sequence (P27467 whole entry): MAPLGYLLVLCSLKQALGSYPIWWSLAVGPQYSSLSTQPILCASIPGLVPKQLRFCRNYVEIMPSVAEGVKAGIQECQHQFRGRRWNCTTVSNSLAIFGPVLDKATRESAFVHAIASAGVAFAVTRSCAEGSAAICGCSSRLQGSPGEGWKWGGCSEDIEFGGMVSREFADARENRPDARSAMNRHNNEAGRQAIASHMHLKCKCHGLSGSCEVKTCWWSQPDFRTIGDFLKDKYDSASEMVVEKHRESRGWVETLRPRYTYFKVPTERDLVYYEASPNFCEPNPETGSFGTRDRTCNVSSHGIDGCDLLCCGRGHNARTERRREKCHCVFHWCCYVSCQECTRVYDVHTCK

[11] = biological target: T4, Sentrin-specific protease 6 (Homo sapiens, UniProt Q9GZR1); assay: SENP6 protease inhibitors, SAR follow-up, biochemical, luminescence, set 2 (AID 588598); type: functional
T4 sequence (Q9GZR1 whole entry): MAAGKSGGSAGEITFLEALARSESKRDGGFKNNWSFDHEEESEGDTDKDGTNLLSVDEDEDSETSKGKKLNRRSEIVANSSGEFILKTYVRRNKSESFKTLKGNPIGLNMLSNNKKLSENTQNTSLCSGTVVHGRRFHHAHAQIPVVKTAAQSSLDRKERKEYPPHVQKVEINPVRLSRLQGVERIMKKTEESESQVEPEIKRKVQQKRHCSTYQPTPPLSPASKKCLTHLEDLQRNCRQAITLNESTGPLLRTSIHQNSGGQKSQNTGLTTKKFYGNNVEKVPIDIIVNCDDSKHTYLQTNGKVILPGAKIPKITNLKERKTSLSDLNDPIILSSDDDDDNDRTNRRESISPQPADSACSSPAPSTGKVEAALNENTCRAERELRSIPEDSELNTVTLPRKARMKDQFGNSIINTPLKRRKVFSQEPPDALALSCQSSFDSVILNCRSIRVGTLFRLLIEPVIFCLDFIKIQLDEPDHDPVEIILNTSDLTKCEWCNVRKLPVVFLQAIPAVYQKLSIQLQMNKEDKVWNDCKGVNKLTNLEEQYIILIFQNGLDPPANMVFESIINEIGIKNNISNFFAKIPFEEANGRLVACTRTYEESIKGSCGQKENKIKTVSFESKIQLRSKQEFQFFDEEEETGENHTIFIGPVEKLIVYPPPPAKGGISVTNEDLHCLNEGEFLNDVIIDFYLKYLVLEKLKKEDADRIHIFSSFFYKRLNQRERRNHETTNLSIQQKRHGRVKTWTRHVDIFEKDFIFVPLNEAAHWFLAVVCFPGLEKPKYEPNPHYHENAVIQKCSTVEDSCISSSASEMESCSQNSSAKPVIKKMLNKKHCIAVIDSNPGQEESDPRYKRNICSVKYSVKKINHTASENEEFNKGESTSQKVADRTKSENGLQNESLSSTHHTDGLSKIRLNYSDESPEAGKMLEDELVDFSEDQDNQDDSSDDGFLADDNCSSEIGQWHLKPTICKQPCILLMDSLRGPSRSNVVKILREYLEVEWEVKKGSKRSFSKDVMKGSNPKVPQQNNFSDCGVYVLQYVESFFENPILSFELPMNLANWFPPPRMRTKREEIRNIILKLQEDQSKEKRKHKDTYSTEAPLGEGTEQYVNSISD

[12] = biological target: T5, Sentrin-specific protease 8 (Homo sapiens, UniProt Q96LD8); assay: SENP8 protease inhibitors, SAR follow-up, biochemical, luminescence (AID 504501); type: functional
T5 sequence (Q96LD8 whole entry): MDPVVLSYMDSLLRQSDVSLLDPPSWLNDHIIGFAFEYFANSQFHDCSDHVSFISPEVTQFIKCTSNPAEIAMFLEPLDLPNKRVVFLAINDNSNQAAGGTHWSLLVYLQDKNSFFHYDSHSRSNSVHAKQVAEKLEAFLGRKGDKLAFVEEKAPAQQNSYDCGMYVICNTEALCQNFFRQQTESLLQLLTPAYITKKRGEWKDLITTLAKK

Caspase-3 = biological target: T6, Caspase-3 (Homo sapiens, UniProt P42574); assay: SAR Analysis of small molecule inhibitors of Sentrin-specific proteases (SENPs) using a Caspase-3 Selectivity assay. [Related pubchem assays (depositor defined):AID2540, AID2599, AID434973, AID489001]; type: functional
T6 sequence (P42574 whole entry): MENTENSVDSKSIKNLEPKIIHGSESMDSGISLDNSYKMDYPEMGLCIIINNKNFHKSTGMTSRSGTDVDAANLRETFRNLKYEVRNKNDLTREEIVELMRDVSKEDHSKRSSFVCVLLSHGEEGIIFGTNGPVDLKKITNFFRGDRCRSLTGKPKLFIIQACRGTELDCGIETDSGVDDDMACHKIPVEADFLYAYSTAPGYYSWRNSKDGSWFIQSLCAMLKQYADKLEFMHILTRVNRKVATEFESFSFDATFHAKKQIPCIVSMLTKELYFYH

[13] = biological target: T4, Sentrin-specific protease 6; assay: SAR Analysis of small molecule inhibitors of Sentrin-specific protease 6 (SENP6) using a Luminescent assay. [Related pubchem assays (depositor defined):AID2582, AID2599]; type: functional
[14] = biological target: T5, Sentrin-specific protease 8; assay: SENP8 protease inhibitors, SAR follow-up, biochemical, luminescence, set 2 (AID 588601); type: functional
[15] = biological target: T7, Sentrin-specific protease 7 (Homo sapiens, UniProt Q9BQF6); assay: SENP7 protease inhibitors, SAR follow-up, biochemical, luminescence, set 2 (AID 588600); type: functional
T7 sequence (Q9BQF6 whole entry): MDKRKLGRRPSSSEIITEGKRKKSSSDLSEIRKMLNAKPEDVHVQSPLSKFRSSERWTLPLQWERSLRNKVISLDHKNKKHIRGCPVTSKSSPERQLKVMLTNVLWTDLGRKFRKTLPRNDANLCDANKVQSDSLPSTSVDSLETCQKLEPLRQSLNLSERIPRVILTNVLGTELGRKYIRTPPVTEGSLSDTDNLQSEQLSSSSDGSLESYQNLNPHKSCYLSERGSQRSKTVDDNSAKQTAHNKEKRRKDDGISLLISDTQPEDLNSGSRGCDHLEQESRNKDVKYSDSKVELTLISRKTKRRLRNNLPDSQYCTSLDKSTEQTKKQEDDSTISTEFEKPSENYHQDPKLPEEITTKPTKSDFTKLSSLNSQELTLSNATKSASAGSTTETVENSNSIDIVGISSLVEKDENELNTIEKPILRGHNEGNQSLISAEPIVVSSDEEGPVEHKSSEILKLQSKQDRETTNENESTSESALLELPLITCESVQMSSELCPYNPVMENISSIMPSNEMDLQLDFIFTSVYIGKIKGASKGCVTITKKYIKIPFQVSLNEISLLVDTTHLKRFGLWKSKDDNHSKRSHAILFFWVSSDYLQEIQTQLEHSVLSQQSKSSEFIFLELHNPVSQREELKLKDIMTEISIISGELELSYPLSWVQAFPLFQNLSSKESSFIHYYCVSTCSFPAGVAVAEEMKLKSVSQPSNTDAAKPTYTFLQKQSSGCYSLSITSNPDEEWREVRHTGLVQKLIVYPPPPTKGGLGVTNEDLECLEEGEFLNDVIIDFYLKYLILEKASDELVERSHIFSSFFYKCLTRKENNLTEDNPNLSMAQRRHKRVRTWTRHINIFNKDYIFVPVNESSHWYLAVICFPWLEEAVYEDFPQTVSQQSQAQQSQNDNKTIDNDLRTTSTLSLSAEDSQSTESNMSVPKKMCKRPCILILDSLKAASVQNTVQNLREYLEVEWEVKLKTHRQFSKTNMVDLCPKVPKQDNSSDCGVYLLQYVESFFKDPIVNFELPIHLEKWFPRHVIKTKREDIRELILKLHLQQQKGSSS

[16] = biological target: T7, Sentrin-specific protease 7; assay: SENP7 protease inhibitors, SAR follow-up, biochemical, luminescence (AID 504497); type: functional
[17] = biological target: Ras and Rab interactor 1/Tyrosine-protein kinase ABL1 (Homo sapiens, UniProt P00519+Q13671); type: functional;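 further: biochemical TR-FRET dose-response test measuring inhibition of binding between Rin1 and Abl proteins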
Ras and Rab interactor 1/Tyrosine-protein kinase ABL1, sequence (P00519 whole entry): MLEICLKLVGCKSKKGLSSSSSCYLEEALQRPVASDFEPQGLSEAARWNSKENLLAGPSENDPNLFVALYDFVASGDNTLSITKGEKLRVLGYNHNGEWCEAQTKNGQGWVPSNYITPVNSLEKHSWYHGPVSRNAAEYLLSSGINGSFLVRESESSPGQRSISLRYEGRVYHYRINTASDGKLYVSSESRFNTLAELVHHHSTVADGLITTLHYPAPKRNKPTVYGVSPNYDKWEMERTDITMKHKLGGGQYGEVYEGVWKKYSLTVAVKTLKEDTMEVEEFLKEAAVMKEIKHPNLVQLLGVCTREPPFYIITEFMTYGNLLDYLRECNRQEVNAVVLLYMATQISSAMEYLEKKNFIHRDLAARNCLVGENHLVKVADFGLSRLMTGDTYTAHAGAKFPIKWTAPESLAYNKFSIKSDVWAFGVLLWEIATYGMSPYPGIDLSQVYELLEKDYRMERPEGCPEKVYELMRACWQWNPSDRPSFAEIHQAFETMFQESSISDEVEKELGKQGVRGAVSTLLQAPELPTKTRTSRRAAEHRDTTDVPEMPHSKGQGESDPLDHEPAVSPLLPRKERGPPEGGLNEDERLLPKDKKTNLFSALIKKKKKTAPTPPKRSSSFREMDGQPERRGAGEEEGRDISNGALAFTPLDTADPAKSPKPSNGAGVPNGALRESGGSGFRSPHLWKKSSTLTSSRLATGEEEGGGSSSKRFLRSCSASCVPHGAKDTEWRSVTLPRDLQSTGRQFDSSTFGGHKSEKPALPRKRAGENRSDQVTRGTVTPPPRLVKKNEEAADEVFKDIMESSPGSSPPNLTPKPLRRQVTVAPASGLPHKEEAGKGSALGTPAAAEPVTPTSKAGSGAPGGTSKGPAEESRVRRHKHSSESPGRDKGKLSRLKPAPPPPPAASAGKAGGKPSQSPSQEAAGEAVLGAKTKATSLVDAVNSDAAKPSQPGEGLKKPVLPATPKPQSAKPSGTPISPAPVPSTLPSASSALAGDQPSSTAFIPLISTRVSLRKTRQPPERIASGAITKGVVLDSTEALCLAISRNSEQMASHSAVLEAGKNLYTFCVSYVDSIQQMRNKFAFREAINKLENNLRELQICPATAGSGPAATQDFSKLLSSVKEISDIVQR
Ras and Rab interactor 1/Tyrosine-protein kinase ABL1, sequence (Q13671 whole entry): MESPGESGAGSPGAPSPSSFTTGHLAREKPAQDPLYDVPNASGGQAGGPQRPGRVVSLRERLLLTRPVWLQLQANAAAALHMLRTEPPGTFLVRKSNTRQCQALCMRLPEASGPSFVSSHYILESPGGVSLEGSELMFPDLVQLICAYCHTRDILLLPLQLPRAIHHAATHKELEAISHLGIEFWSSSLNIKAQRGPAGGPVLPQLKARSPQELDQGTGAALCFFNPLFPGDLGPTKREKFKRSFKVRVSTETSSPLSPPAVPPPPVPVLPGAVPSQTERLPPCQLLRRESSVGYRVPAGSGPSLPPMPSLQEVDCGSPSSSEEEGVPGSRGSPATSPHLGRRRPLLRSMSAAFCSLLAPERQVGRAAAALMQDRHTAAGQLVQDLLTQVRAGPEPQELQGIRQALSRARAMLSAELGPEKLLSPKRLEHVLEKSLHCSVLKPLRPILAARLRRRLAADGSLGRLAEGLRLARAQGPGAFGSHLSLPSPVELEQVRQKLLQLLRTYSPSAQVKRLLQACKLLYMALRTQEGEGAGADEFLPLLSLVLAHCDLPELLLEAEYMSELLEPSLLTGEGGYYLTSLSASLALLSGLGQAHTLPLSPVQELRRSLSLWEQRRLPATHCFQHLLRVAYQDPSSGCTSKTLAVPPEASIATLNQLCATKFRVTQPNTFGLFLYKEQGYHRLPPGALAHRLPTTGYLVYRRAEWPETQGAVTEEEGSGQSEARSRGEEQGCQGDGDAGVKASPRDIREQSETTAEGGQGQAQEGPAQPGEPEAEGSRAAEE

Cc1ccc(C)c(NP(=O)(Oc2ccccc2)Oc2ccccc2)c1
IC50 [1]: 49 µM (inactive)
IC50 (CHO-K1): > 66.2 µM (inactive)
IC50 [2]: 26.3 µM (inactive)
IC50 [3]: 5.47 µM (active)
IC50 (Orexin receptor type 2 [4]): > 88.8 µM (inactive)
IC50 (Orexin receptor type 2 [5]): > 50 µM (inactive)

Cc1nc2c(ccc3nc(NC(=O)Cc4cccc5ccccc45)sc32)s1
EC50 [6]: > 195 µM (not active)
IC50 [1]: > 49.7 µM (inactive)
IC50 (CHO-K1): > 66.2 µM (inactive)
EC50 [7]: 16.3 µM (active)
IC50 [2]: 5.34 µM (active)
IC50 [3]: 1.45 µM (active)
IC50 (Orexin receptor type 2 [4]): 17.6 µM (inactive)
EC50 [8]: > 120 µM (not active)
CC50 [9]: 12.2 µM (active)
IC50 (Orexin receptor type 2 [5]): > 50 µM (inactive)
EC50 [10]: > 60 µM (not active)

Cc1ccc2c(c1)c(C)cc[n+]2Cc1ccccc1
IC50 (Protein Wnt-3a): 15.3 µM (active)

O=C(Nc1nc2ccccc2s1)c1cc2ccccc2s1
IC50 [11]: 0.58 µM (active)
IC50 [12]: 0.66 µM (active)
IC50 (Caspase-3): 0.51 µM (active)
IC50 [13]: 0.67 µM (active)
IC50 [14]: 0.543 µM (active)
IC50 [15]: 0.589 µM (active)
IC50 [16]: 0.49 µM (active)

Cc1cc(S(=O)(=O)N2CCN(C(=O)CCC(=O)N3CCOCC3)CC2)ccc1Br
IC50 [17]: 21.5 µM (inactive)
